# Reference: EPA's ToxValDB 9.5
# Several values for one entry are separate records, joined by “and”; a condition that tells them apart may be missing. Equal values may be shown once.
# Legend:
# Oryctolagus sp. = conditions: acute, dermal
# Rattus norvegicus [1] = conditions: for LD50 / NOAEL: oral, gavage; for NOAEL: reproduction developmental, duration: 8 weeks, Sprague-Dawley
# Rattus norvegicus [2] = conditions: M/F
# Rattus norvegicus [3] = conditions: for LOEL / NOEL: Hershberger; for LEL: uterotrophic, Active
# Rattus norvegicus [4] = conditions: oral
# Rattus norvegicus [5] = test system: Rattus norvegicus
# Mus musculus = conditions: subchronic, duration: 13 weeks, B6C3F1
# [6] = developmental, oral, reduced pup weanling weight
# [7] = duration: 10 days, oral, gavage, Sprague-Dawley, active + Negative + Antiandrogenic + anti-androgenic
# [8] = duration: 10 days, oral, gavage, Sprague-Dawley, active + Antiandrogenic + anti-androgenic
# [9] = duration: 5 days, oral, gavage, Sprague-Dawley, active + Antiandrogenic + decrease in AST wts
# [10] = duration: 10 days, oral, gavage, Fischer 344, active + Antiandrogenic + anti-androgenic + decrease in AST wts
# [11] = duration: 10 days, oral, gavage, Sprague-Dawley, Antiandrogenic + anti-androgenic + decrease in AST wts
# [12] = duration: 10 days, oral, gavage, Wistar, active + Antiandrogenic + anti-androgenic + decrease in AST wts
# [13] = subchronic, oral, gavage, epithelial hyperplasia of the forestomach
# [14] = chronic, duration: 2 years, oral, diet, reduced body weight gain and food consumption
# [15] = short-term, duration: 28 days, gavage, M, Sprague-Dawley, Body Weight Changes: decrease + Food Consumption: decrease + Relative Organ Weight: Thyroid increase
# [16] = chronic, duration: 2 years, oral, diet, reduced body weight (males), liver cell vacuolation, cholinesterase inhibition
# [17] = duration: 10 days, oral, gavage, Sprague-Dawley, active + Negative + Antiandrogenic + anti-androgenic + negative
compound,measurement,setting,value
CCCCCN(CCCCC)C(=S)[S][Sb]([S]C(=S)N(CCCCC)CCCCC)[S]C(=S)N(CCCCC)CCCCC [Antimony diamyldithiocarbamate],LD50,Oryctolagus sp.; occlusive,16000 mg/kg
same,LD50,Rattus norvegicus [1]; acute,16400 mg/kg
CCCCNC(=O)n1c(NC(=O)OC)nc2ccccc21 [Benomyl],LEL,Rattus norvegicus [2]; [6],25 mg/kg-day
same,NOEL,Rattus norvegicus [2]; [6],5 mg/kg-day
same,LOEL,Rattus norvegicus [3]; [7],1000 mg/kg-day
same,NOEL,Rattus norvegicus [3]; [7],300 mg/kg-day
ClCCOCCCl [Bis(chloroethyl) ether],NOEL,"Rattus norvegicus [4]; subchronic, gavage, Sprague-Dawley",15 mg/kg-day
same,LOAEL,"Rattus norvegicus [5]; chronic, duration: 130 days, inhalation, M/F, body weight",404 mg/m3
CCC[CH2][Sn]([Cl])([Cl])[CH2]CCC [Dibutyltin dichloride],LOAEL,"Rattus norvegicus [5]; short-term, duration: 6 weeks, oral, diet, M/F, Wistar, immunological",5 mg/kg-day
CC(C)CCCCCCCOC(=O)c1ccccc1C(=O)OCCCCCCCC(C)C [Diisodecyl phthalate],LOEL,Rattus norvegicus [3]; [8],500 mg/kg-day
same,NOEL,Rattus norvegicus [3]; [8],100 mg/kg-day
C#C[C@]1(OC(=O)CC)C[C@@H]2CC[C@@H]3[C@H](CC[C@@]4(C)[C@H]3CC[C@]4(C#C)OC(=O)CC)[C@H]2C1 [Dinordrin II],LEL,"Rattus norvegicus [3]; duration: 3 days, oral",0.01 mg/day
C#C[C@@]1(OC(=O)CC)C[C@@H]2CC[C@@H]3[C@H](CC[C@@]4(C)[C@H]3CC[C@]4(C#C)OC(=O)CC)[C@H]2C1 [Dinordrin I],LEL,"Rattus norvegicus [3]; duration: 3 days, oral",0.000156 mg/day
CC(C)([CH2][Sn]([CH2]C(C)(C)c1ccccc1)([CH2]C(C)(C)c1ccccc1)[O][Sn]([CH2]C(C)(C)c1ccccc1)([CH2]C(C)(C)c1ccccc1)[CH2]C(C)(C)c1ccccc1)c1ccccc1 [Fenbutatin oxide],LOEL,"Rattus norvegicus [3]; duration: 10 days, oral, gavage, wistar, active + Negative + Antiandrogenic + anti-androgenic + decrease in age of partial PPS at 10 / decrease in PPS wt and age at 75 with …",10 mg/kg-day
COP(=S)(OC)Oc1ccc([N+](=O)[O-])c(C)c1 [Fenitrothion],LOEL,"Rattus norvegicus [3]; duration: 7 days, oral, gavage, Sprague-Dawley, active + Negative + Antiandrogenic + anti-androgenic",15 mg/kg-day
CC(C)C(=O)Nc1ccc([N+](=O)[O-])c(C(F)(F)F)c1 [Flutamide],LOEL,Rattus norvegicus [3]; [9],2.5 mg/kg-day
same,NOEL,Rattus norvegicus [3]; [9],0.6 mg/kg-day
same,NOEL,"Rattus norvegicus [3]; duration: 7 days, oral, gavage, Sprague-Dawley, active + Antiandrogenic + anti-androgenic + decrease in AST wts",0.6 mg/kg-day
same,LOEL,Rattus norvegicus [3]; [10],2.5 mg/kg-day and 3.2 mg/kg-day
same,NOEL,Rattus norvegicus [3]; [10],0.6 mg/kg-day
same,LOEL,Rattus norvegicus [3]; [11],1 mg/kg-day
same,NOEL,Rattus norvegicus [3]; [11],0.6 mg/kg-day
same,NOEL,"Rattus norvegicus [3]; duration: 10 days, oral, gavage, Sprague-Dawley, Neither + decrease in AST",0.6 mg/kg-day
same,NOEL,"Rattus norvegicus [3]; duration: 10 days, oral, gavage, Sprague-Dawley, active + Antiandrogenic + anti-androgenic + decrease in AST wts",0.6 mg/kg-day
same,NOEL,"Rattus norvegicus [3]; duration: 10 days, oral, gavage, Sprague-Dawley, active + Antiandrogenic + decrease in AST wts",0.6 mg/kg-day
same,LOEL,Rattus norvegicus [3]; [12],2.5 mg/kg-day and 3 mg/kg-day and 3.2 mg/kg-day
same,NOEL,Rattus norvegicus [3]; [12],0.6 mg/kg-day
Brc1ccccc1-c1c(Br)c(Br)c(Br)c(Br)c1Br [Hexabromobiphenyl],NOAEL,"Rattus norvegicus [5]; short-term, duration: 10 days, oral, gavage, M, Sprague-Dawley, endocrine",1 mg/kg-day
"ClC(Cl)=C(Cl)C(Cl)=C(Cl)Cl [Hexachloro-1,3-butadiene]",NOAEL,"Mus musculus; oral, diet, F, renal",0.2 mg/kg-day
same,LOAEL,"Rattus norvegicus [5]; short-term, duration: 14 days, oral, diet, M/F, Wistar, renal",5.9 mg/kg-day
CC(C)Oc1ccc2c(=O)c(-c3ccccc3)coc2c1 [Ipriflavone],NOEL,"Rattus norvegicus [4]; subchronic, duration: 35 days, gavage, Sprague-Dawley",> 3000 mg/kg-day
same,LEL,"Rattus norvegicus [3]; duration: 3 days, oral",200 mg/day
CC(C)CCCCCCCOP(OCCCCCCCC(C)C)OCCCCCCCC(C)C [Isodecyl phosphite],LD50,Oryctolagus sp.; New Zealand,> 5000 mg/kg
same,LC50,"Rattus norvegicus [1]; acute, Inhalation, Sherman Wistar",> 12.6 µg/mL
same,LD50,"Rattus norvegicus [1]; acute, Sherman Wistar",> 5000 mg/kg
same,NOAEL,Rattus norvegicus [1]; generation: F0,≥ 1000 mg/kg-day
same,NOAEL,Rattus norvegicus [1]; generation: F1,≥ 1000 mg/kg-day
CBr [Methyl bromide],LOAEL,"Rattus norvegicus [2]; chronic, duration: 29 months, inhalation, degenerative and proliferative lesions of the olfactory epithelium of the nasal cavity",11.7 mg/m3
same,LOAEL,Rattus norvegicus [2]; [13],7.1 mg/kg-day
same,NOAEL,Rattus norvegicus [2]; [13],1.4 mg/kg-day
same,LOAEL,"Mus musculus; inhalation, M/F, neurological",38.8 mg/m3
same,LOAEL,"Rattus norvegicus [5]; chronic, duration: 129 weeks, inhalation, M/F, Wistar, respiratory",12 mg/m3
CCCCCCCCCC(=O)O[C@H]1CC[C@H]2[C@@H]3CCC4=CC(=O)CC[C@@H]4[C@H]3CC[C@]12C [Nandrolone decanoate],LOEL,"Rattus norvegicus [3]; duration: 10 days, injection, intramuscular, Wistar, active + Androgenic + androgenic",1.5 mg/kg-day
CCCCCCCC=O [Octanal],LD50,"Oryctolagus sp.; occlusive, New Zealand",5210 mg/kg
CNC(=O)ON=C(SC)C(=O)N(C)C [Oxamyl],LEL,Rattus norvegicus [2]; [14],5 mg/kg-day
same,NOEL,Rattus norvegicus [2]; [14],2.5 mg/kg-day
same,NOEL,"Rattus norvegicus [3]; duration: 10 days, oral, gavage, Sprague-Dawley, inactive + Negative + Negative + neither + negative",0.5 mg/kg-day
O=C1OC(c2ccc(O)cc2)(c2ccc(O)cc2)c2ccccc21 [Phenolphthalein],NOAEL,Rattus norvegicus [4]; [15],< 200 mg/kg-day
same,NOEL,Rattus norvegicus [4]; [15],< 200 mg/kg-day
same,NOEL,"Rattus norvegicus [4]; subchronic, duration: 13 weeks, diet, F, Fischer 344, Body Weight Changes: decrease + Absolute Organ Weight: Liver + Relative Organ Weight: Right kidney increase, Liver increase",800 mg/kg-day
same,NOEL,"Rattus norvegicus [4]; subchronic, duration: 13 weeks, diet, M/F, Fischer 344, Body Weight Changes: decrease + Absolute Organ Weight: Liver + Relative Organ Weight: Right kidney increase, Liver increase",576 mg/kg-day
same,LEL,"Rattus norvegicus [3]; duration: 2 days, injection, subcutaneous",1 mg/day
COP(=S)(OC)SCN1C(=O)c2ccccc2C1=O [Phosmet],LEL,Rattus norvegicus [2]; [16],20 mg/kg-day
same,NOEL,Rattus norvegicus [2]; [16],2 mg/kg-day
same,LOEL,Rattus norvegicus [3]; [17],25 mg/kg-day
same,NOEL,Rattus norvegicus [3]; [17],20 mg/kg-day and 15 mg/kg-day
C[C@H]1CCC[C@H](O)CCCCCc2cc(O)cc(O)c2C(=O)O1 [Zearalanol],LEL,"Rattus norvegicus [3]; duration: 3 days, oral",0.03 mg/day
"ClC1C(Cl)C(Cl)C(Cl)C(Cl)C1Cl (stereo not drawn) [alpha-1,2,3,4,5,6-Hexachlorocyclohexane]",NOAEL,"Rattus norvegicus [5]; chronic, duration: 107 weeks, oral, diet, M/F, Wistar, hepatic",0.9 mg/kg-day
same,NOAEL,"Rattus norvegicus [5]; short-term, duration: 28 days, oral, gavage, M, Fischer 344, hepatic",2 mg/kg-day
